In ChEMBL document CHEMBL4373709 (J Med Chem, 2019):
Active and inactive are the calls of the source. The calls are words filed in the database; no cut-off is given here. Numbered stars: 1 amine (or outer) side, 2 acyl side, 3 side chain; on linkers, the order of the positions; unused ones are H or OH. Square brackets hold non-standard residues; d marks the D form. Peptide text beside a SMILES is read from it. X1 = NCCCC[C@H](N)CN([C@@H](CCCCN)C(=O)[*:2])[*:1]; Tle = CC(C)(C)[C@H](N)C(=O)O

Tests used:
[1] = biological target: T1, Neurotensin receptor type 1 (Homo sapiens, UniProt P30989); test: Agonist activity at NTR1 (unknown origin) expressed in CHO cells assessed as effect on calcium flux by Fluo-4 NW calcium dye based fluorescence assay; format: functional, cell-based
Mus musculus [2] = test: Suppression of hyperlocomotion in DAT knockout C57BL/6J mouse assessed as reduction in total distance traveled at 12 mg/kg, ip measured up to 2 hrs by open field test; format: functional, organism-based
[3] = biological target: T1, Neurotensin receptor type 1; test: Allosteric modulation of human GFP-fused PK-tagged Gq-coupled NTR1 expressed in CHOK1 cells assessed as induction of NT (8 to 13) peptide-mediated beta-arrestin recruitment measured after 90 mins by pathhunter assay relative to NT (8 to 13) peptide; format: cell-based
Mus musculus [4] = test: Suppression of hyperlocomotion in DAT knockout C57BL/6J mouse assessed as reduction in total distance traveled at 10 to 100 mg/kg, po measured up to 2 hrs by open field test; format: functional, organism-based
[5] = biological target: Neurotensin receptor type 2 (Homo sapiens) (UniProt O95665); test: Allosteric modulation of NTR2 (unknown origin) assessed as induction of NT (8 to 13) peptide-mediated beta-arrestin recruitment at >80 uM by pathhunter assay
[6] = biological target: Neurotensin receptor type 2 (Homo sapiens) (UniProt O95665); test: Positive allosteric modulation of recombinant human NTR2 expressed in HEK293 cells assessed as increase in [125I]-neurotensin binding measured after 3 hrs; format: cell-based
[7] = biological target: Neurotensin receptor type 1 (Mus musculus) (UniProt O88319); test: Positive allosteric modulation of NTR1 in ICR mouse brain assessed as increase in [125I]-neurotensin binding measured after 20 mins; format: tissue-based
[8] = biological target: Histamine H1 receptor (Homo sapiens) (UniProt P35367); test: Binding affinity to H1R (unknown origin) at 5 uM relative to control
[9] = biological target: D(1A) dopamine receptor (Homo sapiens) (UniProt P21728); test: Binding affinity to D1R (unknown origin) at 5 uM relative to control
[10] = biological target: T1, Neurotensin receptor type 1; test: Allosteric modulation of human GFP-fused PK-tagged Gq-coupled NTR1 expressed in CHOK1 cells assessed as induction of NT (8 to 13) peptide-mediated beta-arrestin recruitment at 0.5 to 356 nM measured after 90 mins by pathhunter assay; format: cell-based
[11] = biological target: 5-hydroxytryptamine receptor 2B (Homo sapiens) (UniProt P41595); test: Binding affinity to 5HT2B (unknown origin) at 5 uM relative to control
[12] = biological target: T2, Alpha-2A adrenergic receptor (Homo sapiens) (UniProt P08913); test: Binding affinity to alpha2A adrenoceptor (unknown origin) at 5 uM relative to control
T2 sequence (whole entry): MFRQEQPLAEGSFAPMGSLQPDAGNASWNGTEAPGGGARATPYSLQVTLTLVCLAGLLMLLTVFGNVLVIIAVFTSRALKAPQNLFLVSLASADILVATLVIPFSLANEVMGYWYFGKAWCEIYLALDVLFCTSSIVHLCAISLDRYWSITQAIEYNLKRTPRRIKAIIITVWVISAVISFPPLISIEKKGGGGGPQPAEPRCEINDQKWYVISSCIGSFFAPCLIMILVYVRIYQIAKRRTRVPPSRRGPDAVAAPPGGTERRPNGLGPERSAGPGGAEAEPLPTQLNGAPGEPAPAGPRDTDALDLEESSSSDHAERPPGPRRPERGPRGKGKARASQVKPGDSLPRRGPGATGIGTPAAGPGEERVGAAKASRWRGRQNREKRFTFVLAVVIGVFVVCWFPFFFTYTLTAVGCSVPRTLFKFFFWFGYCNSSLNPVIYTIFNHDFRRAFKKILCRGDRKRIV

[13] = biological target: Kappa-type opioid receptor (Homo sapiens) (UniProt P41145); test: Allosteric modulation of human PK-tagged Gi/Go-coupled KOR expressed in CHOK1 cells assessed as induction of dynorphin A-mediated beta-arrestin recruitment by pathhunter assay; format: cell-based
[14] = biological target: T1, Neurotensin receptor type 1; test: Positive allosteric modulation of recombinant human NTR1 expressed in HEK293 cells assessed as increase in [125I]-neurotensin binding measured after 45 mins relative to control; format: cell-based
[15] = biological target: G-protein coupled receptor 35 (Homo sapiens) (UniProt Q9HC97); test: Allosteric modulation of human PK-tagged Gi/Go-coupled GPR35 expressed in CHOK1 cells assessed as induction of zaprinast-mediated beta-arrestin recruitment by pathhunter assay; format: cell-based
[16] = biological target: G-protein coupled receptor 55 (Homo sapiens) (UniProt Q9Y2T6); test: Allosteric modulation of human PK-tagged Gq-coupled GPR55 expressed in CHOK1 cells assessed as induction of L-alpha-Lysophosphatidylinositol-mediated beta-arrestin recruitment by pathhunter assay; format: functional, cell-based
[17] = biological target: Neurotensin receptor type 1 (Rattus norvegicus, UniProt P20789); test: Displacement of [125I]neurotensin from rat brain NTR1
[18] = Ratio of drug level in brain to plasma of C57BL/6 mouse at 30 mg/kg, po measured after 1 hr by LC-MS/MS analysis; format: ADME, organism-based
[19] = Oral bioavailability in C57BL/6 mouse at 30 mg/kg by LC-MS/MS analysis; format: ADME, organism-based; conditions: in vivo
[20] = Toxicity in DAT knockout C57BL/6J mouse assessed as hypothermia at 10 to 100 mg/kg, po; format: organism-based; conditions: in vivo
[21] = AUC in Sprague-Dawley rat at 30 mg/kg, po by LC-MS/MS analysis; format: ADME, organism-based; conditions: in vivo
[22] = Half life in Sprague-Dawley rat at 30 mg/kg, po by LC-MS/MS analysis; format: ADME, organism-based; conditions: in vivo
[23] = Oral bioavailability in Sprague-Dawley rat at 30 mg/kg by LC-MS/MS analysis; format: ADME, organism-based; conditions: in vivo
[24] = AUC in C57BL/6 mouse at 30 mg/kg, po by LC-MS/MS analysis; format: ADME, organism-based; conditions: in vivo
[25] = Half life in C57BL/6 mouse at 30 mg/kg, po by LC-MS/MS analysis; format: ADME, organism-based; conditions: in vivo
[26] = Ratio of drug level in brain to plasma of Sprague-Dawley rat at 30 mg/kg, po measured after 1 hr by LC-MS/MS analysis; format: ADME, organism-based; conditions: brain and plasma, read-out: BPR
[27] = Toxicity in DAT knockout C57BL/6J mouse assessed as hypotension at 10 to 100 mg/kg, po; format: organism-based; conditions: in vivo
[28] = Toxicity in DAT knockout C57BL/6J mouse assessed as hypothermia at 1 mg/kg, ip; format: organism-based; conditions: in vivo
[29] = Toxicity in DAT knockout C57BL/6J mouse assessed as hypotension at 1 mg/kg, ip; format: organism-based; conditions: in vivo
[30] = Cmax in C57BL/6 mouse at 30 mg/kg, po by LC-MS/MS analysis; format: ADME, organism-based; parameters: dose 30 mg/kg, route oral; conditions: in vivo
[31] = biological target: T1, Neurotensin receptor type 1; test: Allosteric modulation of human GFP-fused PK-tagged Gq-coupled NTR1 expressed in CHOK1 cells assessed as induction of NT (8 to 13) peptide-mediated beta-arrestin recruitment measured after 90 mins by pathhunter assay; format: cell-based
[32] = Volume of distribution in C57BL/6 mouse at 5 mg/kg, iv by LC-MS/MS analysis; format: ADME, organism-based; conditions: in vivo
[33] = Clearance in C57BL/6 mouse at 5 mg/kg, iv by LC-MS/MS analysis; format: ADME, organism-based; conditions: in vivo
[34] = Toxicity in DAT knockout C57BL/6J mouse assessed as hypothermia at 12 mg/kg, ip; format: organism-based; conditions: in vivo
[35] = Ratio of drug level in brain to plasma of Sprague-Dawley rat at 30 mg/kg, po measured after 4 to 8 hrs by LC-MS/MS analysis; format: ADME, organism-based; conditions: brain and plasma, read-out: BPR
[36] = Clearance in Sprague-Dawley rat at 5 mg/kg, iv by LC-MS/MS analysis; format: ADME, organism-based; conditions: in vivo
[37] = Toxicity in DAT knockout C57BL/6J mouse assessed as hypotension at 12 mg/kg, ip; format: organism-based; conditions: in vivo
[38] = biological target: T1, Neurotensin receptor type 1; test: Positive allosteric modulation of recombinant human NTR1 expressed in HEK293 cells assessed as increase in [125I]-neurotensin binding measured after 45 mins; format: cell-based

T1 sequence (P30989 whole entry): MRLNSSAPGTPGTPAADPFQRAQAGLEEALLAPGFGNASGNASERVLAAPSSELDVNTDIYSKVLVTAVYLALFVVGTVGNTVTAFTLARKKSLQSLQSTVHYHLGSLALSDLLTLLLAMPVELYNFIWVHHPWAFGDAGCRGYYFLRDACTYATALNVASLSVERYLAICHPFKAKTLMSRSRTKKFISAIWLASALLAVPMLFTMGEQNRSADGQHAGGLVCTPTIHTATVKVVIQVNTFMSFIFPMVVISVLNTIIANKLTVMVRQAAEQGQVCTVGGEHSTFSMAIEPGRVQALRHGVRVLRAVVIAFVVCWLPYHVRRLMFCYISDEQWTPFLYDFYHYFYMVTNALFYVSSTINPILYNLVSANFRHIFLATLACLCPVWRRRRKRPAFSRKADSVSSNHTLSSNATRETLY
Sequence of Neurotensin receptor type 2 (Homo sapiens) (O95665 whole entry): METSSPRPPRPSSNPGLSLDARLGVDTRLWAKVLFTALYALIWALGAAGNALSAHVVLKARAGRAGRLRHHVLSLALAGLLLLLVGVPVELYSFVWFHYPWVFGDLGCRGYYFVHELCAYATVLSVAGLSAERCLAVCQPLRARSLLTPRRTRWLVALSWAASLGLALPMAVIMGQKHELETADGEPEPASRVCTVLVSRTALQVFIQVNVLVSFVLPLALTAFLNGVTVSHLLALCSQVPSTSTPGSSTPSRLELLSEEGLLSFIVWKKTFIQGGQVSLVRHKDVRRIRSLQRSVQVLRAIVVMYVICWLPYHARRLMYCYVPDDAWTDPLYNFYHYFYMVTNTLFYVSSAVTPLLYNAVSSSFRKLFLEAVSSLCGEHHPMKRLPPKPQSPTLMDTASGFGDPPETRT
Sequence of 5-hydroxytryptamine receptor 2B (Homo sapiens) (P41595 whole entry): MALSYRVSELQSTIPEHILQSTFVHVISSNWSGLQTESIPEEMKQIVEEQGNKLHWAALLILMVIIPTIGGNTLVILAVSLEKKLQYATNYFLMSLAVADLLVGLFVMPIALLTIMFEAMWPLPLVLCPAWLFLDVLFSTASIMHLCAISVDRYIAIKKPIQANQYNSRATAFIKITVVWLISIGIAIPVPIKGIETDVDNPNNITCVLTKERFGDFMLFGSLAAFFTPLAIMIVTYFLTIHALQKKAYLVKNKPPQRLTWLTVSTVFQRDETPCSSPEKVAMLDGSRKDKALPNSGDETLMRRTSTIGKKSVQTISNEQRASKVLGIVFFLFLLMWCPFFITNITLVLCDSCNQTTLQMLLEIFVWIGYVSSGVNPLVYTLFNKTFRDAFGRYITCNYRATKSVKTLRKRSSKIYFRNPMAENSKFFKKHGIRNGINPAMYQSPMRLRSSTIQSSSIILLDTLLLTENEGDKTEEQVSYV
Sequence of G-protein coupled receptor 55 (Homo sapiens) (Q9Y2T6 whole entry): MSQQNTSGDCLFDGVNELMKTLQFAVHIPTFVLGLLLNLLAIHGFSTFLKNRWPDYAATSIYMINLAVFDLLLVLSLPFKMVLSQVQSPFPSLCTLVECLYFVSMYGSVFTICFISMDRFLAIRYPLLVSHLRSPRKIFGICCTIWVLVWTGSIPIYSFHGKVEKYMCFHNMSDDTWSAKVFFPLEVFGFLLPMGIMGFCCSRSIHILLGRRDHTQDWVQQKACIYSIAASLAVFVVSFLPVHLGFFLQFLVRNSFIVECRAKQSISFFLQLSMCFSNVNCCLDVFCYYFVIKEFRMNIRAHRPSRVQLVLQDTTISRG
Sequence of Neurotensin receptor type 1 (Rattus norvegicus, UniProt P20789) (P20789 whole entry): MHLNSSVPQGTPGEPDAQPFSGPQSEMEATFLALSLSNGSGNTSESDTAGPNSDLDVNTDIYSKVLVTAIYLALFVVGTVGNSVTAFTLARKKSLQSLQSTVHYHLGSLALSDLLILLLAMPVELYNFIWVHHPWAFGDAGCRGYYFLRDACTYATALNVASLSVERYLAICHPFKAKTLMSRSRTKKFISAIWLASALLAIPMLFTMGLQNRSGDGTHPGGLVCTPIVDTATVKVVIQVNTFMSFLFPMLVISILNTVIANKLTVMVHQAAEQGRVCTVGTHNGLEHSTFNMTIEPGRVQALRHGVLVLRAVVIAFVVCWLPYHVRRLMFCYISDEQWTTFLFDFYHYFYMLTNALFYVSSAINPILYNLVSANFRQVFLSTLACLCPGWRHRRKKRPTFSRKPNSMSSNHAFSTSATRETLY
Sequence of G-protein coupled receptor 35 (Homo sapiens) (Q9HC97 whole entry): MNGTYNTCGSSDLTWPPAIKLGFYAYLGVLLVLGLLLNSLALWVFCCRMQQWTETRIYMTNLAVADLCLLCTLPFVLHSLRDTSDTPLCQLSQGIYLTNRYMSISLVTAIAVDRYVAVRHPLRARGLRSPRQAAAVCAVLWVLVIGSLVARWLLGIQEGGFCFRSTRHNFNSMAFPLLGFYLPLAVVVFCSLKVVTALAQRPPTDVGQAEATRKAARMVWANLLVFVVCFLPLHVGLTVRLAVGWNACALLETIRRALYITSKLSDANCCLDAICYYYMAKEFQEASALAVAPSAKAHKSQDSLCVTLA
Sequence of Histamine H1 receptor (Homo sapiens) (P35367 whole entry): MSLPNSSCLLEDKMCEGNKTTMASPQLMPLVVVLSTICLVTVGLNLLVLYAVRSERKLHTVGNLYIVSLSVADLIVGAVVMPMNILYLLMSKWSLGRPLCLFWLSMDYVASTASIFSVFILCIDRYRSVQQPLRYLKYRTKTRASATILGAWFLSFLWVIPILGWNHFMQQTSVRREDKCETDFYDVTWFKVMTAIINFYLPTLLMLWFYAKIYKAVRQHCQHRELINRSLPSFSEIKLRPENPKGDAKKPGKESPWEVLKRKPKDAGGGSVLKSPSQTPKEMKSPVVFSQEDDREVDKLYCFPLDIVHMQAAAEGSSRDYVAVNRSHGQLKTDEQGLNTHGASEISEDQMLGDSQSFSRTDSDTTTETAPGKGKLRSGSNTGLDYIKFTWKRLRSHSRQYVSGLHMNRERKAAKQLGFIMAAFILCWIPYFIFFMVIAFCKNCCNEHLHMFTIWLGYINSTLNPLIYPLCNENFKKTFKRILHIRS
Sequence of Neurotensin receptor type 1 (Mus musculus) (O88319 whole entry): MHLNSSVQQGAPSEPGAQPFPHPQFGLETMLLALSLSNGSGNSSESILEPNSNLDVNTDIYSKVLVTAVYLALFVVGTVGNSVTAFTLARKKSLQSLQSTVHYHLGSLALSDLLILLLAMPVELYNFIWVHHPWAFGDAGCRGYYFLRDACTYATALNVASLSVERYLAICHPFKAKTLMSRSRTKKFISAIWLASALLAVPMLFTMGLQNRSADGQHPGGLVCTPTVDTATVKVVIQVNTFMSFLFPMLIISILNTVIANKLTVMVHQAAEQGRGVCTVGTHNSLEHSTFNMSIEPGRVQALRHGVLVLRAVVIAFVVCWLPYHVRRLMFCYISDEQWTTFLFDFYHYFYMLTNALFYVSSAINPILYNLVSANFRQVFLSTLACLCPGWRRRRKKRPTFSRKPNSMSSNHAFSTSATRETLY
Sequence of Kappa-type opioid receptor (Homo sapiens) (P41145 whole entry): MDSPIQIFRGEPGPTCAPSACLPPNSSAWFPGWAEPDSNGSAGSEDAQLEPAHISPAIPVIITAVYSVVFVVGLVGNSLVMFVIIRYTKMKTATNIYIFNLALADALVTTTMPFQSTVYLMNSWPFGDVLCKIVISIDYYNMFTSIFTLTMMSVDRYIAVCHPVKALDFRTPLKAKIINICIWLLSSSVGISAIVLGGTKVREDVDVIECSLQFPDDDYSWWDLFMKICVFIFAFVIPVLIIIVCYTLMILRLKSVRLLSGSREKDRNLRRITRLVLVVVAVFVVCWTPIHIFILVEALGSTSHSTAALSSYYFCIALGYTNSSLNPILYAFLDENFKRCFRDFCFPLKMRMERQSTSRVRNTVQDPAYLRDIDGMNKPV
Sequence of D(1A) dopamine receptor (Homo sapiens) (P21728 whole entry, the tested form may be a part): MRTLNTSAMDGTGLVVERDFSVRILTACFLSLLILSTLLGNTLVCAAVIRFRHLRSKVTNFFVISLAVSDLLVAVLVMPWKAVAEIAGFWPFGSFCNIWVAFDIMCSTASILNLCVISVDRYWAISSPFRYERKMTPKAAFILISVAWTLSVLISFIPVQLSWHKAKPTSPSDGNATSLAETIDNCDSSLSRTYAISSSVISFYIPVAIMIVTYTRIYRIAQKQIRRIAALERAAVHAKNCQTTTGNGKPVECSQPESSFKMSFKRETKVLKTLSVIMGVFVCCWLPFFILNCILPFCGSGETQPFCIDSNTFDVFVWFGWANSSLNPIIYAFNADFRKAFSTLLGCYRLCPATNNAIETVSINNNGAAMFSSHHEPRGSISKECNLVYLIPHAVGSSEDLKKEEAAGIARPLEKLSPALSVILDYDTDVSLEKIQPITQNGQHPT

Structure (SMILES): COc1ccccc1C1CCN(c2nc(C3(F)CC3)nc3ccc(N(C)CCO)cc23)CC1 [listing 1 of 2 here]
- Activity [1]: inactive
- Activity (Mus musculus [2]): Active
- Emax [3]: 100%
- Activity (Mus musculus [4]): Active
- Activity [5]: inactive
- Activity [6]: inactive
- Activity [7]: Active
- Activity [8]: 75%
- Activity [9]: 36%
- Activity [10]: inactive
- Activity [11]: 42%
- Activity [12]: 55%
- Activity [13]: inactive
- Emax [14]: 140%
- Activity [15]: inactive
- Activity [16]: inactive

Structure (SMILES): COc1cccc(OC)c1-c1cc(C(=O)NC2(C(=O)O)C3CC4CC(C3)CC2C4)nn1-c1ccnc2cc(Cl)ccc12 (centres undefined) [REMINERTANT]
- IC50 [17]: 82 nM

Structure (SMILES): COc1ccccc1C1CCN(c2nc(C3(F)CC3)nc3ccc(N(C)CCO)cc23)CC1.Cl
- BPR [18]: 0.54
- bioavailability ([19]; C57BL/6, mouse): 45%
- Activity [20]: Non-Toxic
- AUC [21]: 2693 ng·h/mL
- t1/2 [22]: 2.23 h
- bioavailability [23]: 48%
- AUC [24]: 4824 ng·h/mL
- t1/2 [25]: 5.28 h
- Kp at 1 h [26]: 0.98
- Activity [27]: Non-Toxic

Structure (SMILES): CCOC(=O)[C@H](CC(C)C)NC(=O)[C@@H](NC(=O)[C@H](Cc1c[nH]c2ccccc12)NC(=O)[C@@H]1CCCN1C(=O)[C@H](CCCCN)NC[C@@H](N)CCCCN)C(C)(C)C (H-[X1]PW[Tle]L-OEt)
- Activity [28]: Toxic
- Activity [29]: Toxic

Structure (SMILES): COc1ccccc1C1CCN(c2nc(C3(C)CC3)nc3ccc(N(C)CCO)cc23)CC1.Cl
- BPR [18]: 0.35
- F ([19]; mouse): 52%
- AUC [24]: 3324 ng·h/mL
- Cmax [30]: 627 ng/mL
- t1/2 [25]: 2.9 h

Structure (SMILES): COc1ccccc1C1CCN(c2nc(C3(C)CC3)nc3ccc(N(C)CCO)cc23)CC1
- EC50 [31]: 98 nM
- Vd [32]: 7.68 L/kg
- clearance [33]: 79.4 mL/min/kg

Structure (SMILES): COc1ccccc1C1CCN(c2nc(C3(F)CC3)nc3ccc(N(C)CCO)cc23)CC1 [listing 2 of 2 here]
- Activity [34]: Non-Toxic
- Kp [35]: 0.98
- EC50 [31]: 340 nM
- clearance [36]: 81 mL/min/kg
- Activity [37]: Non-Toxic
- EC50 [38]: 140 nM
- clearance [33]: 44.8 mL/min/kg
